BigSolDB 2.1

Cc1n[nH]c(=S)s1
solubility (mole fraction)
Conditions | 283.15 K | 288.15 K | 293.15 K | 298.15 K | 303.15 K | 308.15 K | 313.15 K | 318.15 K | 323.15 K
in ethanol | 0.0105 | 0.0131 | 0.0156 | 0.0184 | 0.0219 | 0.0249 | 0.0297 | 0.0342 | 0.04
in ethyl acetate | 0.0152 | 0.0173 | 0.0197 | 0.0221 | 0.0244 | 0.0272 | 0.0307 | 0.0338 | 0.038
in ethyl formate | 0.00842 | 0.01 | 0.0114 | 0.0134 | 0.0151 | 0.0176 | 0.0202 | 0.0227 | 0.0257
in isobutanol | 0.00538 | 0.00689 | 0.00881 | 0.0112 | 0.0143 | 0.0172 | 0.0216 | 0.0271 | 0.0319
in isopropanol | 0.00763 | 0.00943 | 0.0115 | 0.0143 | 0.0179 | 0.0215 | 0.0258 | 0.0314 | 0.0374
in methanol | 0.0104 | 0.0129 | 0.0153 | 0.018 | 0.0213 | 0.0246 | 0.0292 | 0.0337 | 0.0396
in methyl acetate | 0.0167 | 0.0189 | 0.021 | 0.0234 | 0.0257 | 0.0284 | 0.0313 | 0.0342 | 0.0382
in n-butanol | 0.00723 | 0.00904 | 0.0109 | 0.0136 | 0.0164 | 0.0194 | 0.0239 | 0.0287 | 0.0333
in n-butyl acetate | 0.0135 | 0.0153 | 0.0172 | 0.0194 | 0.022 | 0.0246 | 0.0274 | 0.0304 | 0.0336
in n-pentyl acetate | 0.0117 | 0.0137 | 0.0157 | 0.0178 | 0.0203 | 0.0229 | 0.0261 | 0.0289 | 0.0334
in n-propanol | 0.0097 | 0.0119 | 0.0145 | 0.0171 | 0.0206 | 0.0243 | 0.0288 | 0.033 | 0.0389
in n-propyl acetate | 0.0146 | 0.0163 | 0.0187 | 0.0213 | 0.0237 | 0.0266 | 0.0301 | 0.033 | 0.0368
